What all share (assay type): cell-based
In one assay the target is T1, human TLR7 (Homo sapiens, UniProt Q9NYK1).
T1 construct: host or cells: HEK-Blue cells
T1 sequence (Q9NYK1 27-1049): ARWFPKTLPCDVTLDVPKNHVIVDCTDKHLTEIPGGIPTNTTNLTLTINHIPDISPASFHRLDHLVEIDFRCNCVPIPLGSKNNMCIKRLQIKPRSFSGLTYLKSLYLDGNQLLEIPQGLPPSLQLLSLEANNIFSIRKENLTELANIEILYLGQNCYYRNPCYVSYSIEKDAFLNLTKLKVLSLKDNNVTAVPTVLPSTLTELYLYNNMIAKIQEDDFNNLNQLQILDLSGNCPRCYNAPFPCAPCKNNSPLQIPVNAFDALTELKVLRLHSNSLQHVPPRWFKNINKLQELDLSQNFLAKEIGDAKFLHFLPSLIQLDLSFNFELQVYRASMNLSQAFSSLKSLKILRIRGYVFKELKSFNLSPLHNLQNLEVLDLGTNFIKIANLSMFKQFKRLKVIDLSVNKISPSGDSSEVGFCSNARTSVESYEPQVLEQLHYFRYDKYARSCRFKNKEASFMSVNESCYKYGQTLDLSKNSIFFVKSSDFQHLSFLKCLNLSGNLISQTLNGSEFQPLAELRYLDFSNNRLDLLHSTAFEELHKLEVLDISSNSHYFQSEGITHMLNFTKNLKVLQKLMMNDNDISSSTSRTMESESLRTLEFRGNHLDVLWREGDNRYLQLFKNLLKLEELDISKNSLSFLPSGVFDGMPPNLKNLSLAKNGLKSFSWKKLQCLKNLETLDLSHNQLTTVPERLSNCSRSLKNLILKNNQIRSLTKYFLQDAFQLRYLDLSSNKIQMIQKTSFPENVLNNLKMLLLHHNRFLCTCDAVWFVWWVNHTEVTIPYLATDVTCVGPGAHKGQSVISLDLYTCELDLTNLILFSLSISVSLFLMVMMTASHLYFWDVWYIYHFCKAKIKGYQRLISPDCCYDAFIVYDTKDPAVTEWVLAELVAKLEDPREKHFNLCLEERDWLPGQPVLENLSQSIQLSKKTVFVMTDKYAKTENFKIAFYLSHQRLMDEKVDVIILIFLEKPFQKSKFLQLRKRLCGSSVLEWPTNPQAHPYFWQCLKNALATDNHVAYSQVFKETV
The assay is described as follows: TLR7 inhibition reporter assay (HEK-Blue SEAP reporter, gardiquimod stimulation). Conditions: HEK-Blue cells overexpressing human TLR7, SEAP reporter, gardiquimod 7.5 μM, 22 hour incubation. The method in brief: (§1)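 Agonists used: gardiquimod 7.5 μM (TLR7), R848 15.9 μM (TLR8), ODN2006 5 nM (TLR9), added after 30 min room-temperature compound pre-treatment (0.05 nM–50 μM) of receptor-overexpressing HEK-Blue cells. SEAP reporter (NF-κB/AP-1 driven) read after 22 h at 37 °C; inhibition scaled between agonist+DMSO and reference-inhibitor wells.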

A further assay addresses T2, human TLR8 (Homo sapiens, UniProt Q9NR97).
T2 construct: host or cells: HEK-Blue cells
T2 sequence (Q9NR97 27-1041): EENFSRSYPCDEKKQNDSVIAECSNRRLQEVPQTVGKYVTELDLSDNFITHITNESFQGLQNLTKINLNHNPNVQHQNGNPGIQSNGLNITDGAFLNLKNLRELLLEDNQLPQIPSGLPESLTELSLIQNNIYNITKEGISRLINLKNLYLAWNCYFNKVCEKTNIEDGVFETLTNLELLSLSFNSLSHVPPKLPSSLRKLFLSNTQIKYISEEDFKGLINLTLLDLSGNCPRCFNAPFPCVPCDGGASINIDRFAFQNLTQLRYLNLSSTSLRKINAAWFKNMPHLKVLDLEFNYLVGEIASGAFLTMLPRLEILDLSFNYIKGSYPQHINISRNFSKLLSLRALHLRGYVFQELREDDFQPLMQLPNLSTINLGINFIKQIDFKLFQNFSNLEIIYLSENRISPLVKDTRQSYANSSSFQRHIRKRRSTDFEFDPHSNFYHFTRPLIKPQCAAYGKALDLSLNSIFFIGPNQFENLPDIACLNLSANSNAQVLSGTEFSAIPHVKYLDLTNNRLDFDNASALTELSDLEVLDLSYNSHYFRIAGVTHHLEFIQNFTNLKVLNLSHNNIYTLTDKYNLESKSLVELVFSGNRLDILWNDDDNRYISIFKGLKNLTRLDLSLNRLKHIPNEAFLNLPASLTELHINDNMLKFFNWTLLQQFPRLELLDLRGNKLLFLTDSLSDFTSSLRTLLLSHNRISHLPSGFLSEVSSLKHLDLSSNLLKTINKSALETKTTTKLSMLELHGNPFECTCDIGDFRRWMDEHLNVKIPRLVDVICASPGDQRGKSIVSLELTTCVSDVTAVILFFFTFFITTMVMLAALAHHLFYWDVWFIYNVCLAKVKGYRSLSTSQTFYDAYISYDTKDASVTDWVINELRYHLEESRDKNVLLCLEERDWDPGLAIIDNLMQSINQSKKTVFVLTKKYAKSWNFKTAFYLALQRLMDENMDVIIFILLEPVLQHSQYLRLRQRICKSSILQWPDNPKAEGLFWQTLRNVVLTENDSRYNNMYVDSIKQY
In words: TLR8 inhibition reporter assay (HEK-Blue SEAP reporter, R848 stimulation). To be noted: HEK-Blue cells overexpressing human TLR8, SEAP reporter, R848 15.9 μM, 22 hour incubation. In short, it runs like this: as §1

The target in another assay is T3, human TLR9 (Homo sapiens, UniProt Q9NR96).
T3 construct: host or cells: HEK-Blue cells
T3 sequence (Q9NR96 26-1032): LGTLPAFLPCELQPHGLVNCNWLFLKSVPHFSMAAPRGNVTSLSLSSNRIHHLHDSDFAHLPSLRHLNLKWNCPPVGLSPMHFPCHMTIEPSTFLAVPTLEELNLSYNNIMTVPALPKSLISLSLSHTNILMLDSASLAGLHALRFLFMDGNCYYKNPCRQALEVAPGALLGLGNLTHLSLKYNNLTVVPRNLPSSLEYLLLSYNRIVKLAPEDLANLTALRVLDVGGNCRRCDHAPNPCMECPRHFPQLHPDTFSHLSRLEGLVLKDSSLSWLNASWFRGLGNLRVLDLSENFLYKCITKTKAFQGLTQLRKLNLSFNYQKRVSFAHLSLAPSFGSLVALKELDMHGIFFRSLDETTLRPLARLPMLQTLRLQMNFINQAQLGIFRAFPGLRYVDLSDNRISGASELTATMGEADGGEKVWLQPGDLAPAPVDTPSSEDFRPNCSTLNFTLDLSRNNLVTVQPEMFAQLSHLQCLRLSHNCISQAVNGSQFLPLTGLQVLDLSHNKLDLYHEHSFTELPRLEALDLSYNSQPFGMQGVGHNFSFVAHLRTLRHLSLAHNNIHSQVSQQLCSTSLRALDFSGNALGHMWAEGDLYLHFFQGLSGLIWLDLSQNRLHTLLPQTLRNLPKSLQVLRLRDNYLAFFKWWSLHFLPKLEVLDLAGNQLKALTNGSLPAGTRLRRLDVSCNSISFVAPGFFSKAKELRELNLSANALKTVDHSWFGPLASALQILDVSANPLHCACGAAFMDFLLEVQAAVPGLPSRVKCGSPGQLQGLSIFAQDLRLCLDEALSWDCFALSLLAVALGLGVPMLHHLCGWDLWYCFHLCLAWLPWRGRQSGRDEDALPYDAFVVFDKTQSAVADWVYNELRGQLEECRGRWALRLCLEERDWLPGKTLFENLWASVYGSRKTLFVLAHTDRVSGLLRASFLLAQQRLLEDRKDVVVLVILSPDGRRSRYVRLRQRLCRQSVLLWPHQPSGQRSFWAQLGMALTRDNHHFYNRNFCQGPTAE
In words: TLR9 inhibition reporter assay (HEK-Blue SEAP reporter, ODN2006 stimulation). Conditions: HEK-Blue cells overexpressing human TLR9, SEAP reporter, ODN2006 5 nM, 22 hour incubation. In short, it runs like this: as §1
A general note: A reporter such as luciferase makes a cellular process visible.

Molecules are shown by their SMILES.

As a reminder, the IC50 is the concentration that gives 50% inhibition. Higher therefore signals weaker potency.

On to `Cc1c(-c2[nH]c3ccc(C4CCN(CC5CCOC5)CC4)cc3c2C(C)C)cn(C)c(=O)c1Cl` (stereo not drawn) [Example 252, 3-chloro-5-(3-isopropyl-5-(1-((tetrahydrofuran-3-yl)methyl)piperidin-4-yl)-1H-indol-2-yl)-1,4-dimethylpyridin-2(1H)-one], for which the IC50 came to 0.0042 µM against human TLR7, 0.0027 µM against human TLR8 and 2.66 µM on human TLR9.

For `Cc1c(-c2[nH]c3ccc(C4CCN(CC(C)(C)O)CC4)cc3c2C(C)C)cn(C)c(=O)c1C#N` [Example 322, 5-(5-(1-(2-hydroxy-2-methylpropyl)piperidin-4-yl)-3-isopropyl-1H-indol-2-yl)-1,4-dimethyl-2-oxo-1,2-dihydropyridine-3-carbonitrile], the values for the IC50 at human TLR7, against human TLR8 and against human TLR9 were 0.0457 µM, 0.001 µM and 4.79 µM, respectively.

Take `Cc1c(-c2[nH]c3ccc(C4CCN(CC5CCOCC5)CC4)cc3c2C(C)C)cn(C)c(=O)c1Cl` [Example 93, 3-chloro-5-(3-isopropyl-5-(1-((tetrahydro-2H-pyran-4-yl)methyl)piperidin-4-yl)-1H-indol-2-yl)-1,4-dimethylpyridin-2(1H)-one]: the values for the IC50 against human TLR7, against human TLR8 and against human TLR9 were 0.005 µM, 0.0049 µM and 5.8 µM, respectively.

With `COc1cc(-c2[nH]c3ccc(C4CCN(C(=O)CN(C)C)CC4)cc3c2C(C)C)c(C)n(C)c1=O` [Example 275, 5-(5-(1-(dimethylglycyl)piperidin-4-yl)-3-isopropyl-1H-indol-2-yl)-3-methoxy-1,6-dimethylpyridin-2(1H)-one], the IC50 was determined as 0.194 µM on human TLR7, 0.0957 µM on human TLR8 and 3.19 µM at human TLR9.

Turning to `CC(C)c1c(-c2cc(-c3cncnc3)c(=O)n(C)c2)[nH]c2ccc(C3CCN(CCS(C)(=O)=O)CC3)cc12` [Example 108, 5-(3-isopropyl-5-(1-(2-(methylsulfonyl)ethyl)piperidin-4-yl)-1H-indol-2-yl)-1-methyl-3-(pyrimidin-5-yl) pyridin-2(1H)-one], the IC50 amounted to 0.0328 µM at human TLR7, 0.002 µM at human TLR8 and 7.54 µM against human TLR9.

Turning to `Cc1c(-c2[nH]c3ccc(C4CCN(C)CC4)cc3c2C(C)C)cn(C)c(=O)c1Cl` [Example 240, 3-chloro-5-(3-isopropyl-5-(1-methylpiperidin-4-yl)-1H-indol-2-yl)-1,4-dimethylpyridin-2(1H)-one], the IC50 at human TLR7 came to 0.001 µM; on human TLR8, 0.0037 µM; against human TLR9 it was 2.59 µM.

With `CNC(=O)CN1CCC(c2ccc3[nH]c(-c4cc(C)c(=O)n(CCOC)c4)c(C(C)C)c3c2)CC1` [Example 160, 2-(4-(3-isopropyl-2-(1-(2-methoxyethyl)-5-methyl-6-oxo-1,6-dihydropyridin-3-yl)-1H-indol-5-yl)piperidin-1-yl)-N-methylacetamide], the IC50 was 0.0089 µM against human TLR7, 0.0145 µM against human TLR8 and 14.7 µM on human TLR9.

For `Cc1c(-c2[nH]c3ccc(C4CCN(C(C)C(N)=O)CC4)cc3c2C(C)C)cn(C)c(=O)c1Cl` (stereo not drawn) [Example 156, 2-(4-(2-(5-chloro-1,4-dimethyl-6-oxo-1,6-dihydropyridin-3-yl)-3-isopropyl-1H-indol-5-yl)piperidin-1-yl)propanamide], the figures for the IC50 on human TLR7, against human TLR8 and at human TLR9 were 0.0043 µM, 0.0074 µM and 11.8 µM, respectively.

Take `Cc1cc(-c2[nH]c3ccc(C4CCN(C(=O)CN(C)C)CC4)cc3c2C(C)C)nn(C)c1=O` [Example 294, 6-(5-(1-(dimethylglycyl)piperidin-4-yl)-3-isopropyl-1H-indol-2-yl)-2,4-dimethylpyridazin-3(2H)-one]: the IC50 was determined as 0.0125 µM at human TLR7, 0.0169 µM on human TLR8 and 3.32 µM on human TLR9.

Consider `Cc1cc(-c2[nH]c3ccc(C4CCN(C5COC5)CC4)cc3c2C(C)C)nn(C)c1=O` [Example 189, 6-(3-isopropyl-5-(1-(oxetan-3-yl)piperidin-4-yl)-1H-indol-2-yl)-2,4-dimethylpyridazin-3(2H)-one], for which the IC50 against human TLR7 was 0.0255 µM; against human TLR8 it was 0.025 µM; against human TLR9 it was 47.8 µM.

On to `Cc1ncccc1-c1cc(-c2[nH]c3ccc(C4CCN(C(C)C)CC4)cc3c2C(C)C)cn(C)c1=O` [Example 344, 5-(3-isopropyl-5-(1-isopropylpiperidin-4-yl)-1H-indol-2-yl)-1,2′-dimethyl-[3,3′-bipyridin]-2(1H)-one], for which the values for the IC50 on human TLR7, on human TLR8 and against human TLR9 were 0.0115 µM, 0.0265 µM and 0.322 µM, respectively.

Regarding `Cc1cc(-c2[nH]c3ccc(C4CCN(C(=O)CN5CCCC5=O)CC4)cc3c2C(C)C)cn(C)c1=O` [Example 300, 5-(3-isopropyl-5-(1-(2-(2-oxopyrrolidin-1-yl)acetyl)piperidin-4-yl)-1H-indol-2-yl)-1,3-dimethylpyridin-2(1H)-one], the IC50 against human TLR7 is 0.0426 µM; against human TLR8 it was 0.0425 µM; against human TLR9, no less than 50 µM.

Values taken from patent US11447466B2, “Substituted indole compounds useful as inhibitors of TLR7/8/9” (BRISTOL-MYERS SQUIBB COMPANY, priority 2017, dated 2022).
